The results in this text go back to US11633370B2, “Use of scavengers of reactive gamma-ketoaldehydes to extend cell lifespan and healthspan” (Vanderbilt University, priority 2016, dated 2023).

Experiment [1] concerns VC199 [sir-2.1(ok434)]. In words: Longevity assay, non-functional SIR-2.1 mutant. It counts as in vivo, C. elegans. The settings on record: 0 μM SA 16 days, p=0.70. The protocol: A nematode strain carrying a non-functional SIR-2.1 mutation, VC199 [sir-2.1(ok434)] was treated with the same concentrations of SA as were used in lifespan experiments with WT nematodes. Starting at day 1 of adulthood, SIR-2.1 mutants were grown on SA-coated OP50-seeded NGM plates. SIR-2.1 mutant worms were transferred to freshly made SA-OP50-NGM agar plates every 2 days and survival was assessed using a platinum wire until all worms died; survival was scored as movement upon slight touch with the platinum wire (FIG. 3B). When SA was administered to the VC199 strain, the effect of extending median lifespan that had been observed in the N2 strain was entirely abolished (FIG. 3C; VC199 median lifespan: 16 days, 0 μM SA; 15 days, 50 μM SA; 15 days, 100 μM SA; 15 days, 500 μM SA; p=0.70).
C. elegans strains were cultured at 20° C. on standard nematode growth media (NGM) agar plates seeded with Escherichia coli strain NA22. The following strains were used in this work: wild-type C. elegans Bristol strain (N2), sir-2.1(ok434) IV, F19F10.5(ok888) V, and daf-16(mu86). Strains were obtained from the Caenorhabditis Genetics Center (University of Minnesota, St. Paul, Minn.). For generating cultures of 15-day-old (Day 15) adult worms, synchronized late-stage L4s/early young adult worms were transferred to peptone enriched 15 cm plates containing UV-irradiated OP50 E. coli and 0.12 mM 5-fluoro-2′-deoxyuridine (FUDR) to inhibit progeny production[88] with or without drug until harvest.
Nematodes grown on NGM-agar plates containing 0.5% peptone, were harvested, and eggs were isolated by alkaline hypochlorite with 0.5 N NaOH, 1% hypochlorite; 8 min at 23° C. […]
Survival cultures were grown on 60-mm agar plates; after the late-stage L4/young adult molt, approximately 100 adults were transferred onto SA-OP50-seeded NGM plates. […] Worms were maintained at 20° C. and live worms were counted during transfer to freshly made SA-OP50-NGM agar plates every 2-3 days. Survival was scored as movement upon slight touch with the platinum wire. […]

Experiment [2] deals with N2 WT C. elegans. In words: Real-time RT-PCR (TaqMan) gene expression, N2. The conditions noted are these: p<0.05. It counts as in vivo. From the text: First, to validate the microarray results, the present inventors performed real-time RT-PCR on four genes, siah-1, sma-4, F13D12.6, and ets-7 (FIG. 6B). […] Messenger RNA levels for siah-1 and sma-4 were decreased by nearly 25%, as well as F13D12.6 and ets-7 were increased by nearly 25% by SA administration (p<0.05). Pathway Analysis using Gene Ontology (GO) with WEB-based Gene SeT Analysis Toolkit (WEBGESTALT <http://bioinfo.vanderbilt.edu/webgestalt/>) highlighted the metabolic process, lipid metabolic process, proteolysis pathways among many others as being altered favorably by the administration of SA (see Supplemental Data). From the array data confirmed by RT-PCR, the present inventors identified the ETS class transcription factor ETS-7 as a protein of interest. ETS factors are known to be involved in regulating lipid metabolism and regulate lifespan in both Drosophila melanogaster and C. elegans. To investigate the role of ETS-7 in regulating lifespan downstream from salicylamine, SA was administered to the ets-7 gene knock-out strain, RB981 [F19F10.5(ok888) V]). […] The present inventors originally hypothesized that upregulation of ets-7 depends on SIR-2.1, which could result in enhanced longevity. In order to test this, the present inventors carried out real-time RT-PCR quantification of ets-7 in non-functional SIR-2.1 mutant nematodes treated with increasing doses of SA (FIG. 6E).
Total RNA was isolated via the Trizol method, as described previously. Following isolation, 2 μg total RNA was used for cDNA synthesis using the High Capacity cDNA Reverse Transcription Kit (Life Technologies), per manufacturer's instructions. Quantitative real time PCR (Bio-Rad) was conducted using TaqMan Gene Expression Assay Probes (Life Technologies) for each gene. Amplified products was normalized to housekeeping gene, ama-1 (RNA polymerase II) after determining fold difference using the comparative 2^−ΔΔct method. The following probes were used: ama-1 (Assay ID: Ce2462269_m1), ets-7 (Ce02477624_g1), F13D12.6 (Ce02439540_m1), siah-1 (Assay ID: Ce02462269_m1), and sma-4 (Assay ID: Ce202447346_1).
A general note: Quantitative PCR measures a nucleic acid by following its amplification.

The test system of experiment [3] is VC199 [sir-2.1(ok434)]. Briefly: Pharyngeal pumping rate, VC199. It counts as in vivo, C. elegans. The settings on record: increasing concentrations of SA, day 15; P=0.5. The protocol:
As with the N2 strain, the present inventors treated VC199 nematodes with increasing concentrations of SA and assessed the age-dependent accumulation of autofluorescent lipofuscin granules and decrease in pharyngeal pumping rate.
C. elegans pharyngeal pumping rate assays were performed on 60-mm agar plates with bacterial lawns at room temperature. Every fifth day, worms were transferred to fresh bacteria-seeded NGM plates, and incubated at 25° C. for 10 min in order to equilibrate feeding rates before measurement. After 10 min incubation, worms were observed under the Zeiss TLB 3.1 microscope with focus on the pharynx. The number of contractions in the terminal bulb of the pharynx was counted for 20 s and then plotted.

For the compound `NCc1ccccc1O` [SA, salicylamine], the median lifespan in experiment [1] (50 μM SA), in experiment [1] (100 μM SA) and in experiment [1] (500 μM SA) was 15 days each time. For the same compound, the “increase in ets-7 messenger RNA level” value in experiment [2] (500 μM SA, Day 15 WT N2) is on record as 32%; in experiment [2] (Day 15 WT N2, SA administration) it was 25%. Moreover, the “decrease in siah-1 messenger RNA level” value in experiment [2] (Day 15 WT N2) is given as approximately 25%. In addition, the “decrease in sma-4 messenger RNA level” value in experiment [2] (Day 15 WT N2) is approximately 25%. For the same compound, in experiment [2] (Day 15 WT N2), the “increase in F13D12.6 messenger RNA level” value was approximately 25%. For the same compound, the pharyngeal pumping rate entry in experiment [3] is “failed to preserve pharyngeal pumping rate”.
